The source made the active and inactive calls.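 Rule for the calls: active = caspase luminescence falls with dose and the half-maximal concentration AC50 from the fitted curve is at or below a set limit; inconclusive = flat fit at 30 to 70% signal loss, or invalid fit; inactive = AC50 above the limit, or signal rises instead.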
What follows are compounds tested on INS-1E cytokine-induced caspase-3/7, Caspase-Glo luminescence, 48 h (assay: inhibitors of cytokine-induced caspase-3/7 activity, dose response, orthogonal assay for beta-cell apoptosis protection project, INS-1E rat cells, luminescence (AID 463206)).

Row | SMILES | AC50
1 | Fc1cccc(Cl)c1-c1nnc2ccc3ccccc3n12 | > 26 µM (inactive)
2 | CCCC(=O)NC(c1ccccc1)c1ccc2cccnc2c1O (stereo not drawn) | > 26 µM (inactive)
3 | Cc1ccc(Nc2c(-c3ccccn3)nc3ccc(C)cn23)cc1 | > 26 µM (inactive)
4 | Clc1ccc2c(N/N=C/c3cccc(Br)c3)ccnc2c1 | > 26 µM (inactive)
5 | COCCCNC(=O)Cn1nnc(-c2ccc(NC(=O)c3cccnc3)cc2)n1 | > 26 µM (inactive)
6 | Cc1ccc2c(c1)N(C)/C(=C/c1cccc[n+]1CCO)S2 | > 26 µM (inactive)
7 | CCCCCCCCNC(C)C(O)c1ccc(SC(C)C)cc1 (stereo not drawn) | > 26 µM (inactive)
8 | O=S(=O)(c1ccc(Cl)cc1)N1CCN(Cc2ccc(O)c3ncccc23)CC1 | > 26 µM (inactive)
9 | COc1ccc(-c2cc3ccccc3oc2=O)cc1NC(=O)c1ccc([N+](=O)[O-])o1 | > 26 µM (inactive)
10 | CCN(CC)S(=O)(=O)c1cc(OC)ccc1N=Nc1ccc(O)c2ncccc12 | > 26 µM (inactive)
11 | O=C(N/N=C/c1cc(Br)c(Br)s1)c1ccncc1 | > 26 µM (inactive)
12 | CC1=NNC(=O)/C1=C\c1cn(-c2ccccc2)nc1-c1ccccc1 | > 26 µM (inactive)
13 | CCN(CC)c1ccc(C(=O)N/N=C/c2ccccc2OC(F)F)cc1 | > 26 µM (inactive)
14 | O=C(Nc1ccc(N2CCN(Cc3ccccc3Cl)CC2)cc1)c1cccnc1 | > 26 µM (inactive)
15 | CC(=O)N1c2ccc(S(=O)(=O)N3CCC(C(=O)N4CCN(c5cccc(C(F)(F)F)c5)CC4)CC3)cc2CC1C (stereo not drawn) | > 26 µM (inactive)
16 | CSc1ccccc1OCc1cc(C(=O)N2CCc3c(Cl)cccc3C2)no1 | > 26 µM (inactive)
17 | O=C(NNC(=S)Nc1ccc(Cl)c(Cl)c1)c1ccccn1 | > 26 µM (inactive)
18 | Cc1cccc(CNc2ncnc3ccc(-c4ccc5c(c4)OCCO5)cc23)c1 | > 26 µM (inactive)
19 | CC(C)OCCCNc1ncnc2c1[nH]c1ccc(F)cc12 | > 26 µM (inactive)
20 | CCC(O)C1CCN(C(=O)c2cc(COc3ccc4ncccc4c3)on2)CC1 (stereo not drawn) | > 26 µM (inactive)
21 | Cc1cccc(-n2c(C)cc(/C=N/n3cnnc3)c2C)c1 | > 26 µM (inactive)
22 | CC(C)(C)C1CCC2(CC1)C(C#N)=C(SCC(=O)NC1CCCCC1)NC(=O)C2C#N (stereo not drawn) | > 26 µM (inactive)
23 | CN(C)c1ccc(NC(=S)NC23CC4CC(CC(C4)C2)C3)cc1 | > 26 µM (inactive)
24 | O=C(NNC(=O)c1ccccc1OCc1ccccc1)c1ccccc1O | > 26 µM (inactive)
25 | CC1=NN(c2nc3ccccc3[nH]2)C(=O)/C1=C/N(C)C | > 26 µM (inactive)

Row | SMILES | AC50
26 | O=C(Oc1c(Cl)cc(Cl)c2cccnc12)c1cccs1 | > 12 µM (inactive)
27 | O=C1C=C(N2CCCCC2)c2ccccc2C1=O | > 26 µM (inactive)
28 | O=C(NNc1ccnc2cc(Cl)ccc12)C1CCCCC1 | > 26 µM (inactive)
29 | CCN(CC)S(=O)(=O)c1cccc(NC(=O)CNc2cccc(S(=O)(=O)N3CCCC3)c2)c1 | > 26 µM (inactive)
30 | CC(=O)Oc1c(C)cc(Cl)cc1C(=O)Nc1ccc([N+](=O)[O-])cc1Cl | > 26 µM (inactive)
31 | Cc1ccc(C(=O)C[n+]2cc(-c3ccccc3)n3c2CCCCC3)cc1 | > 26 µM (inactive)
32 | COc1ccc2nc(/C(C#N)=C\c3ccc(Oc4ccc([N+](=O)[O-])cn4)cc3)[nH]c2c1 | > 26 µM (inactive)
33 | O=C(N/N=C/c1cc([N+](=O)[O-])ccc1O)c1cccc2ccccc12 | > 26 µM (inactive)
34 | C1=C(CCNc2ncnc3c2[nH]c2ccccc23)CCCC1 | > 26 µM (inactive)
35 | CCOC(=O)C1(Cc2cccc(Cl)c2)CCCN(C(=O)c2ccc(COC)s2)C1 (stereo not drawn) | > 26 µM (inactive)
36 | Oc1ccccc1/C=N/Nc1ncc(Br)cn1 | > 26 µM (inactive)
37 | Cc1ccc(Nc2nc(NCc3ccco3)c3ccccc3n2)cc1 | > 12 µM (inactive)
38 | CCn1c(NN=O)nc2ccccc21 | > 26 µM (inactive)
39 | FC(F)(F)c1cnc(NNC(=S)Nc2ccccc2Cl)c(Cl)c1 | > 26 µM (inactive)
40 | Cc1ccc(NC(=O)C2CCN(S(=O)(=O)c3ccc(N4CCCC4=O)cc3)CC2)cc1Cl | > 26 µM (inactive)
41 | COc1cccc(/C=N/NC(=O)c2ccc(-c3ccccc3)cc2)c1O | > 26 µM (inactive)
42 | O=C(N/N=C/c1ccc(O)cc1O)c1ccc(NC(=O)C2CCCCC2)cc1 | > 26 µM (inactive)
43 | CCOC(=O)/C(=C\c1ccccc1)C(=O)c1cc(C(C)=O)c(Nc2ccccc2)s1 | > 26 µM (inactive)
44 | CCOc1cc(/C=C2\CCC/C(=C\c3cc(Cl)c(O)c(OCC)c3)C2=O)cc(Cl)c1O | 9.51 µM
45 | CCOC(=O)c1c(C)[nH]c(C(=O)N/N=C\c2ccccc2O)c1C | > 26 µM (inactive)
46 | CC#CC[N+](C)(C)CCCCCCCCCCCC | > 26 µM (inactive)
47 | CCCCCn1c(=O)c(C(=O)NC(C)c2ccccc2)c(O)c2ccccc21 (stereo not drawn) | > 26 µM (inactive)
48 | O=C(Cc1ccccc1)N/N=C/c1ccc([N+](=O)[O-])s1 | > 26 µM (inactive)
49 | FC(F)(F)c1cnc(NNC(=S)Nc2ccc(Cl)cc2)c(Cl)c1 | > 26 µM (inactive)
50 | N#Cc1ccc(-c2csc(NNC(=O)c3ccccc3)n2)cc1 | > 26 µM (inactive)

Row | SMILES | AC50
51 | O=C(Nc1ccc(Cl)cc1)Nc1ccc(Cl)c(Cl)c1 | > 26 µM (inactive)
52 | Cc1cccc(CSC(Nc2ccc(F)cc2)=C(C#N)C#N)c1 | > 26 µM (inactive)
53 | Cc1ccc2nc(NC(=O)c3ccccn3)sc2c1 | > 26 µM (inactive)
54 | O=C(Nc1nc2ccc(F)cc2s1)C1CCN(S(=O)(=O)c2cc([N+](=O)[O-])ccc2Cl)CC1 | > 26 µM (inactive)
55 | O=C(NNC(=O)C12CC3CC(CC(C3)C1)C2)c1ccccn1 | > 26 µM (inactive)
56 | CCCCC[n+]1ccn(C2=C([O-])c3ccccc3C(=O)/C2=N\S(=O)(=O)c2ccccc2)c1 | > 26 µM (inactive)
57 | COc1ccc(CNCCC(c2ccc(OC(C)C)cc2)c2ccccc2OC)cc1 (stereo not drawn) | > 26 µM (inactive)
58 | Cc1ccc(NC2=C/C(=N/S(=O)(=O)c3cccs3)c3ccccc3C2=O)cc1C | > 26 µM (inactive)
59 | COc1cc(/C=C/C(=O)c2ccc([N+](=O)[O-])o2)ccc1O | > 26 µM (inactive)
60 | N=c1ccn(CC(=O)c2ccc(-c3ccccc3)cc2)cc1 | > 26 µM (inactive)
61 | CCCCCCSc1cccc(-c2nc3ccccn3c2NCc2ccccc2)c1 | > 26 µM (inactive)
62 | Cc1cc(/C=N/n2cnnc2)c(C)n1-c1ccc(OCc2ccccc2F)cc1 | > 26 µM (inactive)
63 | Cc1ccccc1/C=N/Nc1ccnc2cc(Cl)ccc12 | > 26 µM (inactive)
64 | O=C(Nc1nc(-c2ccccn2)cs1)c1cc(Cl)ccc1[N+](=O)[O-] | > 26 µM (inactive)
65 | COc1ccc(NS(=O)(=O)c2ccc(N3CCOCC3)c(N)c2)cc1 | > 26 µM (inactive)
66 | COC(=O)c1ccc2[nH]c3cccc(/C(=C/c4ccccc4)c4ccccc4)c3c2c1 | > 26 µM (inactive)
67 | CCCOc1ccc(Cc2c(Cl)nc(SC)nc2NC)cc1 | > 26 µM (inactive)
68 | CCOC(=O)C(NCCc1ccc(F)cc1)(NC(=O)CC)C(F)(F)F (stereo not drawn) | > 26 µM (inactive)
69 | CC1C/C(=C/c2ccncc2)C(=O)/C(=C/c2ccncc2)C1 (stereo not drawn) | > 26 µM (inactive)
70 | CC1CCN(Cc2c(C(=O)N/N=C/c3cc(Br)ccc3O)nnn2-c2nonc2N)CC1 | > 26 µM (inactive)
71 | COC(=O)C1=C(C)N(Cc2ccccc2)C(=NCc2cccc(C(F)(F)F)c2)N[C@H]1c1cccc(C(F)(F)F)c1 | > 26 µM (inactive)
72 | Cc1ccc(/C=N/Nc2ccnc3cc(Cl)ccc23)c(C)c1 | > 12 µM (inactive)
73 | CCCCCc1cc(=O)oc2c(C(CCN(CC)CC)c3ccc(OC)cc3)c(OC)cc(OC)c12 (stereo not drawn) | 23.2 µM
74 | CCOC(=O)c1ccc(NC(=O)Cn2cnc3cc(C)c(C)cc32)cc1 | > 26 µM (inactive)
75 | Cc1ccc(S(=O)(=O)/N=C2\C=C(Nc3ccc(O)cc3)C(=O)c3ccccc32)cc1 | > 26 µM (inactive)

Row | SMILES | AC50
76 | CC1CC(=O)N(c2ccc(Br)cc2)C(=O)C1 | > 26 µM (inactive)
77 | Cc1cc(C)cc(OCC(O)CN2CCC(CN3C(=O)c4cccc5cccc(c45)C3=O)CC2)c1 (stereo not drawn) | > 26 µM (inactive)
78 | CCCCCCC[N+](CC)(CC)CCCCc1ccc(Cl)cc1 | > 26 µM (inactive)
79 | CCCCNc1c(-c2ccc(SC3CCCCC3)cc2)nc2ccccn12 | > 26 µM (inactive)
80 | Cc1nc2cc(-c3ccccc3)sc2c(=O)n1N | > 26 µM (inactive)
81 | CCCOCc1ccc(O)c2ncccc12 | > 26 µM (inactive)
82 | Cc1ccc(C(=O)C[n+]2cc(-c3ccc(C)cc3)n3c2CCCCC3)cc1 | > 26 µM (inactive)
83 | COC(=O)C1CCCCN1C(=O)c1cc(COc2cccc3cnccc23)on1 (stereo not drawn) | > 26 µM (inactive)
84 | Cc1ccc([N+](=O)[O-])cc1N(CC(=O)Nc1ccc(S(=O)(=O)Nc2cccc(C(F)(F)F)c2)cc1)S(C)(=O)=O | > 26 µM (inactive)
85 | COc1ccc(C(=O)N(C)c2ccccc2C(=O)NCCc2ccccc2)cc1 | > 26 µM (inactive)
86 | CSc1nc(-c2ccccc2)nc(C(Cl)Cl)n1 | 2.7 µM
87 | O=C(NCC1COc2ccccc2O1)c1cccc(S(=O)(=O)NCc2ccccc2)c1 (stereo not drawn) | > 12 µM (inactive)
88 | Cc1ccc(/C=N/NC(=O)Cc2ccc(Cl)cc2)c(O)c1 | > 26 µM (inactive)
89 | CC(=O)Nc1ccccc1OCC(=O)c1cc(C)n(Cc2cccs2)c1C | > 26 µM (inactive)
90 | CCOC(=O)c1c(C)[nH]c(C)c1C(=O)CSc1nc2ccccc2c(=O)n1-c1ccc(CC)cc1 | > 26 µM (inactive)
91 | COc1ccccc1CNc1ncnc2sccc12 | > 26 µM (inactive)
92 | COc1cc(C(=O)N/N=C(\c2ccccc2)c2ccccn2)cc(OC)c1OC | > 26 µM (inactive)
93 | CN(C)CCOc1ccc(-c2c(-c3ccccc3)sc3ccccc23)cc1 | > 26 µM (inactive)
94 | CCCOC(=O)/C(C(N)=NCc1ccccc1)=C(\O)OCCC | > 26 µM (inactive)
95 | Cc1ccc(Cn2c(=N)n(CC(=O)c3ccccc3)c3ccccc32)cc1 | > 26 µM (inactive)
96 | C/C(N)=C(/C#N)C(=O)COC(=O)c1cc(-c2ccc(C)cc2)nc2ccccc12 | > 26 µM (inactive)
97 | COc1cccc(/C=N/NC(=O)c2c(-c3ccccc3)noc2C)c1O | > 26 µM (inactive)
98 | CCN(CC)c1ccc(N=Cc2ccc([N+](=O)[O-])o2)cc1 | > 26 µM (inactive)

— PubChem BioAssay AID463206 (Broad Institute, 2010)
